# Experiments:
# [1] = Hygroscopicity by DVS at 25° C.; format: physicochemical
# [2] = Solid state stability, 1 week (HPLC purity, color, XRPD); details: Solid state, 1 week; for Purity, Bulk (HPLC): initial purity 99.8%
smiles,measurement,setting,value
O=C(N[C@H](CN1CCCC1)[C@H](O)c1ccc(OC2CC2)c(Cl)c1)/C(=N/O)c1ccc2cc(Cl)ccc2c1.O=C(O)C(O)C(O)C(=O)O,XRPD after DVS test,[1],No form change
same,hygroscopicity (DVS),[1],slightly hygroscopic
same,Desorp. (DVS),[1]; 0% RH,0.00%
same,Sorp. (water uptake by DVS),[1]; 0% RH,0.00%
same,Desorp. (DVS),[1]; 10% RH,0.07%
same,Sorp. (water uptake by DVS),[1]; 10% RH,0.04%
same,Desorp. (DVS),[1]; 20% RH,0.12%
same,Sorp. (water uptake by DVS),[1]; 20% RH,0.09%
same,Desorp. (DVS),[1]; 30% RH,0.18%
same,Sorp. (water uptake by DVS),[1]; 30% RH,0.14%
same,Desorp. (DVS),[1]; 40% RH,0.22%
same,Sorp. (water uptake by DVS),[1]; 40% RH,0.18%
same,Sorp. (water uptake by DVS),[1]; 50% RH,0.25%
same,Sorp. (water uptake by DVS),[1]; 60% RH,0.28%
same,Sorp. (water uptake by DVS),[1]; 70% RH,0.35%
same,Sorp. (water uptake by DVS),[1]; 80% RH,0.42%
same,Sorp. (water uptake by DVS),[1]; 90% RH,0.57%
same,water uptake increased from 40% RH to 90% RH,[1]; DVS,about 0.39%
same,Bulk (XRPD),"[2]; 25° C./92% RH, open container",No form change
same,"Purity, Bulk (HPLC)","[2]; 25° C./92% RH, open container",99.8%
same,Bulk (XRPD),"[2]; 40° C./75% RH, open container",No form change
same,"Purity, Bulk (HPLC)","[2]; 40° C./75% RH, open container",99.8%
same,Bulk (XRPD),"[2]; 60° C., tight container",No form change
same,"Purity, Bulk (HPLC)","[2]; 60° C., tight container",99.8%

# From patent publication US20260048036A1, “CRYSTALLINE FORMS OF A GLUCOSYLCERAMIDE SYNTHASE INHIBITOR AND USES THEREOF” (ACELINK THERAPEUTICS, INC., priority 2022, published 2026)
